Test results from ChEMBL document CHEMBL3868595, “Plazomicin is effective in a non-human primate pneumonic plague model” (Bioorg Med Chem, 2016).

Tests used:
[1] = AUC (0 to 24 hrs) in African green monkey blood at 35 mg/kg administered as iv infusion twice daily for 7 consecutive days measured on day 7 by LC-MS/MS analysis; assay type: ADME, organism-based; set-up: time < 24 hr, dose 35 mg/kg, route intravenous; conditions: chlorocebus aethiops
Yersinia pestis [2] = assay: Antibacterial activity against Yersinia pestis Colorado 92 infected in African green monkey 8047 model assessed as bacterial burden in brain at 6.25 mg/kg, iv administered within 6 hrs post onset of sustained fever as 30 mins infusion for 10 days (reference value: 1.9 10^6CFU/g); assay type: functional, CO92
African green monkey [3] = assay: Toxicity in African green monkey B5994 model infected with Yersinia pestis Colorado 92 assessed as serum lactate dehydrogenase level at 25 mg/kg, iv administered within 6 hrs post onset of sustained fever as 30 mins infusion for 10 days (reference value: 364 IU/L); assay type: organism-based; conditions: chlorocebus sabaeus, in vivo
Yersinia pestis [4] = assay: Antibacterial activity against Yersinia pestis Colorado 92 infected in African green monkey B6872 model assessed as bacterial burden in brain at 25 mg/kg, iv administered within 6 hrs post onset of sustained fever as 30 mins infusion for 5 days (reference value: 1.9 10^6CFU/g); assay type: functional, CO92
Yersinia pestis [5] = assay: Antibacterial activity against Yersinia pestis Colorado 92 infected in African green monkey C2083 model assessed as bacterial burden in spleen at 12.5 mg/kg, iv administered within 6 hrs post onset of sustained fever as 30 mins infusion for 5 days (reference value: 1.6 10^9CFU/g); assay type: functional, CO92
African green monkey [6] = assay: Toxicity in African green monkey B6291 model infected with Yersinia pestis Colorado 92 assessed as serum alanine aminotransferase level at 25 mg/kg, iv administered within 6 hrs post onset of sustained fever as 30 mins infusion for 10 days (reference value: 47 IU/L); assay type: organism-based; conditions: chlorocebus sabaeus, in vivo
Yersinia pestis [7] = assay: Antibacterial activity against Yersinia pestis Colorado 92 infected in African green monkey B6106 model assessed as bacterial burden in kidney at 25 mg/kg, iv administered within 6 hrs post onset of sustained fever as 30 mins infusion for 5 days (reference value: 7.1 10^7CFU/g); assay type: functional, CO92
Yersinia pestis [8] = assay: Antibacterial activity against Yersinia pestis Colorado 92 infected in African green monkey B6988 model assessed as bacterial burden in blood at 6.25 mg/kg, iv administered within 6 hrs post onset of sustained fever as 30 mins infusion for 5 days (reference value: 1.2 10^7CFU/ml); assay type: functional, CO92
African green monkey [9] = assay: Toxicity in African green monkey 8067 model infected with Yersinia pestis Colorado 92 assessed as serum alanine aminotransferase level at 25 mg/kg, iv administered within 6 hrs post onset of sustained fever as 30 mins infusion for 10 days (reference value: 45 IU/L); assay type: organism-based; conditions: chlorocebus sabaeus, in vivo
Yersinia pestis [10] = assay: Antibacterial activity against Yersinia pestis Colorado 92 infected in African green monkey B6783 model assessed as bacterial burden in brain at 12.5 mg/kg, iv administered within 6 hrs post onset of sustained fever as 30 mins infusion for 5 days (reference value: 1.9 10^6CFU/g); assay type: functional, CO92
African green monkey [11] = assay: Toxicity in African green monkey 7643 model infected with Yersinia pestis Colorado 92 assessed as serum creatinine level at 25 mg/kg, iv administered within 6 hrs post onset of sustained fever as 30 mins infusion for 10 days (reference value: 0.5 mg/dl); assay type: organism-based; conditions: chlorocebus sabaeus, in vivo
Yersinia pestis [12] = assay: Antibacterial activity against Yersinia pestis Colorado 92 infected in African green monkey B6960 model assessed as bacterial burden in heart at 6.25 mg/kg, iv administered within 6 hrs post onset of sustained fever as 30 mins infusion for 5 days (reference value: 2.6 10^7CFU/g); assay type: functional, CO92
Yersinia pestis [13] = assay: Antibacterial activity against Yersinia pestis Colorado 92 infected in African green monkey C2083 model assessed as bacterial burden in brain at 12.5 mg/kg, iv administered within 6 hrs post onset of sustained fever as 30 mins infusion for 5 days (reference value: 1.9 10^6CFU/g); assay type: functional, CO92
[14] = AUC (0 to 24 hrs) in African green monkey blood at 35 mg/kg administered as iv infusion twice daily for 7 consecutive days measured on day 1 by LC-MS/MS analysis; assay type: ADME, organism-based; set-up: dose 35 mg/kg, time < 24 hr, route intravenous; conditions: chlorocebus aethiops
Yersinia pestis [15] = assay: Antibacterial activity against Yersinia pestis Colorado 92 infected in African green monkey B6889 model assessed as bacterial burden in brain at 6.25 mg/kg, iv administered within 6 hrs post onset of sustained fever as 30 mins infusion for 5 days (reference value: 1.9 10^6CFU/g); assay type: functional, CO92
Yersinia pestis [16] = assay: Antibacterial activity against Yersinia pestis Colorado 92 infected in African green monkey B6783 model assessed as bacterial burden in tracheobronchial lymph nodes at 12.5 mg/kg, iv administered within 6 hrs post onset of sustained fever as 30 mins infusion for 5 days (reference value: 7.7 10^9CFU/g); assay type: functional, CO92, Lymph node
Yersinia pestis [17] = assay: Antibacterial activity against Yersinia pestis Colorado 92 infected in African green monkey B6872 model assessed as bacterial burden in kidney at 25 mg/kg, iv administered within 6 hrs post onset of sustained fever as 30 mins infusion for 5 days (reference value: 7.1 10^7CFU/g); assay type: functional, organism-based; conditions: CO92
African green monkey [18] = assay: Toxicity in African green monkey 8067 model infected with Yersinia pestis Colorado 92 assessed as serum lactate dehydrogenase level at 25 mg/kg, iv administered within 6 hrs post onset of sustained fever as 30 mins infusion for 10 days (reference value: 287 IU/L); assay type: organism-based; conditions: chlorocebus sabaeus, in vivo
African green monkey [19] = assay: Toxicity in African green monkey B6140 model infected with Yersinia pestis Colorado 92 assessed as serum creatinine level at 25 mg/kg, iv administered within 6 hrs post onset of sustained fever as 30 mins infusion for 10 days (reference value: 0.8 mg/dl); assay type: organism-based; conditions: chlorocebus sabaeus, in vivo
Yersinia pestis [20] = assay: Antibacterial activity against Yersinia pestis Colorado 92 infected in African green monkey B6889 model assessed as bacterial burden in blood at 6.25 mg/kg, iv administered within 6 hrs post onset of sustained fever as 30 mins infusion for 5 days (reference value: 1.2 10^7CFU/ml); assay type: functional, CO92
Yersinia pestis [21] = assay: Antibacterial activity against Yersinia pestis Colorado 92 infected in African green monkey B6436 model assessed as bacterial burden in liver at 25 mg/kg, iv administered within 6 hrs post onset of sustained fever as 30 mins infusion for 5 days (reference value: 5.2 10^8CFU/g); assay type: functional, organism-based; conditions: CO92
Yersinia pestis [22] = assay: Antibacterial activity against Yersinia pestis Colorado 92 infected in African green monkey B6127 model assessed as bacterial burden in brain at 25 mg/kg, iv administered within 6 hrs post onset of sustained fever as 30 mins infusion for 10 days (reference value: 1.9 10^6CFU/g); assay type: functional, CO92
[23] = Toxicity in African green monkey 8067 model infected with Yersinia pestis Colorado 92 assessed as total white blood cell count at 25 mg/kg, iv administered within 6 hrs post onset of sustained fever as 30 mins infusion for 10 days (reference value: 10 10^3/microL); assay type: organism-based; conditions: chlorocebus aethiops, in vivo
Yersinia pestis [24] = assay: Antibacterial activity against Yersinia pestis Colorado 92 infected in African green monkey B6469 model assessed as bacterial burden in liver at 25 mg/kg, iv administered within 6 hrs post onset of sustained fever as 30 mins infusion for 5 days (reference value: 5.2 10^8CFU/g); assay type: functional, organism-based; conditions: CO92
African green monkey [25] = assay: Toxicity in African green monkey 7929 model infected with Yersinia pestis Colorado 92 assessed as serum creatinine level at 25 mg/kg, iv administered within 6 hrs post onset of sustained fever as 30 mins infusion for 10 days (reference value: 1 mg/dl); assay type: organism-based; conditions: chlorocebus sabaeus, in vivo

Compound: CN[C@@H]1[C@@H](O)[C@@H](O[C@@H]2[C@@H](O)[C@H](O[C@H]3OC(CNCCO)=CC[C@H]3N)[C@@H](N)C[C@H]2NC(=O)[C@@H](O)CCN)OC[C@]1(C)O [PLAZOMICIN]
- AUC at 24 h [1]: 319 µg·h/mL
- Activity (Yersinia pestis [2]): 60 CFU/g
- Activity (African green monkey [3]): 403 IU/L
- Activity (Yersinia pestis [4]): 4.1 ×10⁶ CFU/g
- Activity (Yersinia pestis [5]): 1.5 ×10⁷ CFU/g
- Activity (African green monkey [6]): 68 IU/L
- Activity (Yersinia pestis [7]): 17 CFU/g
- Activity (Yersinia pestis [8]): 11 CFU/ml
- Activity (African green monkey [9]): 50 IU/L
- Activity (Yersinia pestis [10]): 33 CFU/g
- Activity (African green monkey [11]): 0.4 mg/dL
- Activity (Yersinia pestis [12]): 1.2 ×10⁶ CFU/g
- Activity (Yersinia pestis [13]): 2.2 ×10⁶ CFU/g
- AUC(0-t) at 24 h [14]: 306 µg·h/mL
- Activity (Yersinia pestis [15]): 80 CFU/g
- Activity (Yersinia pestis [16]): 6.3 ×10⁹ CFU/g
- Activity (Yersinia pestis [17]): Below limit of detection
- Activity (African green monkey [18]): 478 IU/L
- Activity (African green monkey [19]): 0.7 mg/dL
- Activity (Yersinia pestis [20]): 93 CFU/ml
- Activity (Yersinia pestis [21]): Below limit of detection
- Activity (Yersinia pestis [22]): 39 CFU/g
- Activity [23]: 9.4 ×10³ /uL
- Activity (Yersinia pestis [24]): Below limit of detection
- Activity (African green monkey [25]): 0.9 mg/dL
